In US7268209B2, “Peptides, derivates thereof, process for producing the same, novel strain producing the same, and antiviral agent comprising the same as active ingredient” (Toyo Suisan Kaisha, Ltd., priority 2001, dated 2007):
Where a SMILES comes first, the peptide text is derived from it. Bridges are numbered along the chain shown (N, C = ends). [ ]: non-standard residue; d: D form. The star is where a group is joined. ξ: configuration not given here. Decanoyl(3ξ-OH) = CCCCCCCC(O)CC(=O)*; X1 = CCCCCC/C=C/CC(O)CC(=O)*; Dab = NCC[CH](N)C(=O)O

Experiments:
[1] = system: white spot syndrome virus (WSSV); assay: Antiviral effect against shrimp virus: injection of peptide-treated WSSV into shrimp; type: in vivo, Penaeus monodon (black tiger shrimp); conditions: WSSV mixed with equal volume of 100 μg/mL peptide solution, 25° C. 1 hour, 0.1 mL intramuscular; observed 2 weeks; 10 shrimps per group
Description: Penaeus monodon (black tiger shrimp) weighing about 20 g were divided at random into groups each consisting of 10 shrimps and raised separately. A viral culture fluid prepared by diluting the white spot syndrome virus (WSSV LD50 value; 10^−3.6) 2000-fold with Hank's solution was mixed with an equal volume of a diluted solution (100 μg/mL) of the present peptides MA026 and BTI-MA026. After the mixture was incubated at 25° C. for 1 hour, the solution was intramuscularly injected at a dose of 0.1 mL into each shrimp, for viral inoculation. Whether the shrimps were actually inoculated with the virus or not was determined by observing them for 2 weeks after viral infection, and pathologically examining the ones that dies. The lesion tissues were examined to detect the viral gene by the PCR method. In the control group, Hank's solution only was used.

hepatitis C virus (HCV) = type: cell-based; conditions: summary of Table 14
Description: Using the present peptides MA026, BTI-MA026 and R2MA026 as objects, the antiviral effect against hepatitis C virus (HCV) was examined. The experiments were conducted according to the method of Mizutani et al. (Biochem. Biophys. Res. Commun. 227, 822-826, 1996) under supervision of Dr. Kunitada Shimotohno at Institute for Viral Research, Kyoto University. • (1) 1×10^6 gene titer per 0.1 mL of HCV was infected with 1×10^6 MT-2C cells per 1 mL, and cultured at 32° C. for 4 days. • (2) The infected cells of (1) were divided (10^5 cells per well) into a 96-well plate and incubated at 32° C. for 1 day. • (3) Each of the present peptides was added to each well so that the concentration thereof became 1 μM and 5 μM, and incubated at 32° C. for further 2 days. • (4) RNA was extracted from the test cells, and after synthesized cDNA with a reverse transcriptase, PCR of first and second round were performed to detect the HCV gene. • (5) The inhibition effect against HCV was evaluated by comparing fluorescence intensities of the PCR products originated from the HCV infected cells to which the test sample was added, assuming the fluorescence intensity of the PCR product originated from the infected cells to which no test substance was added, to be 100%.

IHNV HV7601 strain = assay: Antiviral activity by plaque reduction, IHNV in CHSE-214 cells; type: cell-based, infectious hematopoietic necrosis virus (IHNV) in salmonid; conditions: decrease in number of plaques, sample and virus pre-incubated at 10° C. for 2 hours
Description: (§1) Evaluation of the antiviral activity was conducted by the same method as described by Burke et al. (Appln. Env. Microbiol., 29, 872-876, 1980) except for the following partial modification. • (1) A sample to be measured for its antiviral activity is dissolved in dimethyl sulfoxide (DMSO) and then diluted with Hank's solution. • (2) 0.2 mL each of the diluted solution in (1) and a viral solution (IHNV HV7601 strain; 100 to 200 PFU/sample) diluted with Hank's solution are mixed and incubated at 10° C. for 2 hours. • (3) After the incubation in (2), the sample is inoculated for 30 minutes in CHSE-214 cells previously cultured for 24 hours in a 24-well cell culture plate. • (4) The sample is removed from each well, and an MEM medium containing. 0.8% methyl cellulose is overlaid on the cells and cultured for 7 days. • (5) The cells on the culture plate are fixed in 3.7% aqueous formalin, and after staining with 1% Crystal Violet, the number of plaques is counted. • (6) The antiviral activity is expressed in terms of the decrease in the number of plaques, relative to that decrease on wells to which the sample was not added. (Composition of the Medium) • a) 5.00 g polypeptone, 2.50 g meat extract, 2.50 g yeast extract, 0.20 g K2HPO4, 0.05 g MgSO4, 1.00 g glucose, 5.00 g NaCl, 1000 mL distilled water, pH 7.5, which were autoclaved at 121° C. for 15 minutes. • b) 15.00 g agar for microorganisms is added to a).
In the following examples, the evaluation of the antiviral activity was conducted in the method described above.
(§2) The antiviral activities of the present peptide MA026 against infectious hematopoietic necrosis virus (IHNV) in salmonid, rhabdovirus (EVA) in American eels and rhabdovirus (EVEX) in European eels were measured according to the method described in Example 1.

[2] = system: rhabdovirus (EVA) in American eels; assay: Antiviral activity by plaque reduction, EVA; type: cell-based; conditions: method of Example 1, decrease in number of plaques
Description: as §1, with “(Composition of the Medium) • a) 5.00 g polypeptone, 2.50 g meat extract, 2.50 g yeast extract, 0.20 g K2HPO4, 0.05 g MgSO4, 1.00 g glucose, 5.00 g NaCl, 1000 mL distilled water, pH 7.5, which were autoclaved at 121° C. for 15 minutes. • b) 15.00 g agar for microorganisms is added to a).” left out
as §2

[3] = system: rhabdovirus (EVEX) in European eels; assay: Antiviral activity by plaque reduction, EVEX; type: cell-based; conditions: method of Example 1, decrease in number of plaques
Description: as §1, with “(Composition of the Medium) • a) 5.00 g polypeptone, 2.50 g meat extract, 2.50 g yeast extract, 0.20 g K2HPO4, 0.05 g MgSO4, 1.00 g glucose, 5.00 g NaCl, 1000 mL distilled water, pH 7.5, which were autoclaved at 121° C. for 15 minutes. • b) 15.00 g agar for microorganisms is added to a).” left out
as §2

`CCCCCCCC(O)CC(=O)NC(CC(C)C)C(=O)NC(CCC(=O)O)C(=O)NC(CCN)C(=O)NC(C(=O)NC(CC(C)C)C(=O)NC(CCN)C(=O)NC1COC(=O)C(C(C)CC)NC(=O)C(CCN)NC(=O)C(CC(C)C)NC(=O)C(CCN)NC(=O)C(CC(C)C)NC(=O)C(CC(C)C)NC(=O)C(C(C)C)NC1=O)C(C)C` (stereo not drawn) [BTI-MA026] ({Decanoyl(3ξ-OH)}-LE[Dab]VL[Dab]SVLL[Dab]L[Dab]I; ester 7-C; configuration not given here) was tested. Which “dead shrimp after inoculation with WSSV” value [1] did it give?
The value was “no dead shrimp”.

And the “proliferation of hepatitis C virus” value (hepatitis C virus (HCV))?
The value was “inhibited”.

And the “antiviral activity against IHNV” value (IHNV HV7601 strain)?
Its value is “confirmed”.

For `CCCCCCCC(O)CC(=O)NC(CC(C)C)C(=O)NC(CCC(=O)O)C(=O)NC(CCN)C(=O)NC(C(=O)NC(CC(C)C)C(=O)NC(CCN)C(=O)NC(CO)C(=O)NC(C(=O)NC(CC(C)C)C(=O)NC(CC(C)C)C(=O)NC(CCN)C(=O)NC(CC(C)C)C(=O)NC(CCN)C(=O)NC(C(=O)O)C(C)CC)C(C)C)C(C)C` (stereo not drawn) [BTI-base MA026] ({Decanoyl(3ξ-OH)}-LE[Dab]VL[Dab]SVLL[Dab]L[Dab]I-OH; configuration not given here), which “antiviral activity against IHNV” value (IHNV HV7601 strain) is on record?
Its value is “confirmed”.

What does the source list for `CCCCCCCC(O)CC(=O)NC(CC(C)C)C(=O)NC(CCC(=O)O)C(=O)NC(CCC(N)=O)C(=O)NC(C(=O)NC(CC(C)C)C(=O)NC(CCC(N)=O)C(=O)NC1COC(=O)C(C(C)CC)NC(=O)C(CCC(N)=O)NC(=O)C(CC(C)C)NC(=O)C(CCC(N)=O)NC(=O)C(CC(C)C)NC(=O)C(CC(C)C)NC(=O)C(C(C)C)NC1=O)C(C)C` (stereo not drawn) [MA026] ({Decanoyl(3ξ-OH)}-LEQVLQSVLLQLQI; ester 7-C; configuration not given here)?
dead shrimp after inoculation with WSSV [1]: no dead shrimp; antiviral activity against EVA [2]: high antiviral activity; proliferation of hepatitis C virus (hepatitis C virus (HCV)): inhibited; antiviral activity against EVEX [3]: high antiviral activity; antiviral activity against IHNV (IHNV HV7601 strain): high antiviral activity

`CCCCCCCC(O)CC(=O)NC(CC(C)C)C(=O)NC(CCC(=O)O)C(=O)NC(CCC(N)=O)C(=O)NC(C(=O)NC(CC(C)C)C(=O)NC(CCC(N)=O)C(=O)NC1COC(=O)C(CC(C)C)NC(=O)C(CCC(N)=O)NC(=O)C(CC(C)C)NC(=O)C(CCC(N)=O)NC(=O)C(CC(C)C)NC(=O)C(C(C)C)NC(=O)C(C(C)C)NC1=O)C(C)C` (stereo not drawn) [R1MA026] ({Decanoyl(3ξ-OH)}-LEQVLQSVVLQLQL; ester 7-C; configuration not given here) was tested. Which “antiviral activity against IHNV” value (IHNV HV7601 strain) did it give?
The value was “confirmed”.

How did the “proliferation of hepatitis C virus” value (hepatitis C virus (HCV)) turn out when `CCCCCC/C=C/CC(O)CC(=O)NC(CC(C)C)C(=O)NC(CCC(=O)O)C(=O)NC(CCC(N)=O)C(=O)NC(C(=O)NC(CC(C)C)C(=O)NC(CCC(N)=O)C(=O)NC1COC(=O)C(C(C)CC)NC(=O)C(CCC(N)=O)NC(=O)C(CC(C)C)NC(=O)C(CCC(N)=O)NC(=O)C(CC(C)C)NC(=O)C(CC(C)C)NC(=O)C(C(C)C)NC1=O)C(C)C` (stereo not drawn) [R2MA026] (X1-LEQVLQSVLLQLQI; ester 7-C; configuration not given here) was run?
Its value is “inhibited”.

What about the “antiviral activity against IHNV” value (IHNV HV7601 strain) of the same compound?
Its value is “confirmed”.
